Experimental data reported in patent US12214092B2, “Systems and methods for treating biological fluids” (Cerus Corporation, priority 2017, dated 2025).

Tested on: platelets
Test: Platelet quality, apheresis platelets in 100% plasma, 15 μM S-59, INT-100 (~3.6 J/cm^2) or 340 nm LED 1x/2x/3x (~3.6/7.2/10.8 J/cm^2)
Assay type: cell-based
Source text: Additional units were illuminated with the INT-100 device at ˜3.6 J/cm^2 for comparison or maintained as an untreated control. […] As shown in the following Tables 11-19, for platelet quality parameters, results were generally similar among the controls and INT-100 and 340 nm test samples, except for the 3×340 nm dosage for certain parameters.

SMILES: Cc1oc2c(C)c3oc(=O)cc(C)c3cc2c1COCCN [S-59, 3-(2-aminoethoxymethyl)-2,5,9-trimethylfuro[3,2-g]chromen-7-one]
- Adenosine triphosphate (ATP) (340 nm (1x), D3): 4.4 mmole/10^8 platelets
- Glucose (340 nm (1x), D3): 13.49 mmol/L
- LDH (340 nm (1x), D3): 12.1 LDH IU/10^11 platelets
- Lactate (340 nm (1x), D3): 15.17 mmol/L
- Platelet counts (340 nm (1x), D3): 1391 ×10^3 cells/μL
- Platelet lysis (340 nm (1x), D3): 4.90%
- pCO2 at 37° C. (340 nm (1x), D3): 54.4 mmHg
- pH at 37° C. (340 nm (1x), D3): 6.84
- pO2 at 37° C. (340 nm (1x), D3): 11.8 mmHg
- Adenosine triphosphate (ATP) (340 nm (1x), D5): 4.0 mmole/10^8 platelets
- Glucose (340 nm (1x), D5): 10.27 mmol/L
- LDH (340 nm (1x), D5): 12.1 LDH IU/10^11 platelets
- Lactate (340 nm (1x), D5): 19.81 mmol/L
- Platelet counts (340 nm (1x), D5): 1338 ×10^3 cells/μL
- Platelet lysis (340 nm (1x), D5): 4.43%
- pCO2 at 37° C. (340 nm (1x), D5): 35.7 mmHg
- pH at 37° C. (340 nm (1x), D5): 6.70
- pO2 at 37° C. (340 nm (1x), D5): 22.5 mmHg
- Adenosine triphosphate (ATP) (340 nm (1x), D7): 3.7 mmole/10^8 platelets
- Glucose (340 nm (1x), D7): 8.32 mmol/L
- LDH (340 nm (1x), D7): 13.1 LDH IU/10^11 platelets
- Lactate (340 nm (1x), D7): 21.83 mmol/L
- Platelet counts (340 nm (1x), D7): 1391 ×10^3 cells/μL
- Platelet lysis (340 nm (1x), D7): 5.23%
- pCO2 at 37° C. (340 nm (1x), D7): 34.3 mmHg
- pH at 37° C. (340 nm (1x), D7): 6.58
- pO2 at 37° C. (340 nm (1x), D7): 16.6 mmHg
- Glucose (340 nm (1x), Post-UVA): 17.45 mmol/L
- LDH (340 nm (1x), Post-UVA): 11.3 LDH IU/10^11 platelets
- Lactate (340 nm (1x), Post-UVA): 9.05 mmol/L
- Platelet counts (340 nm (1x), Post-UVA): 1366 ×10^3 cells/μL
- Platelet lysis (340 nm (1x), Post-UVA): 4.48%
- pCO2 at 37° C. (340 nm (1x), Post-UVA): 91.9 mmHg
- pH at 37° C. (340 nm (1x), Post-UVA): 6.89
- pO2 at 37° C. (340 nm (1x), Post-UVA): 14.3 mmHg
- Adenosine triphosphate (ATP) (340 nm (1x), Pre-UVA): 4.0 mmole/10^8 platelets
- LDH (340 nm (1x), Pre-UVA): 10.5 LDH IU/10^11 platelets
- Platelet counts (340 nm (1x), Pre-UVA): 1453 ×10^3 cells/μL
- Platelet lysis (340 nm (1x), Pre-UVA): 4.30%
- pCO2 at 37° C. (340 nm (1x), Pre-UVA): 89.6 mmHg
- pH at 37° C. (340 nm (1x), Pre-UVA): 6.90
- pO2 at 37° C. (340 nm (1x), Pre-UVA): 41.8 mmHg
- Adenosine triphosphate (ATP) (340 nm (2x), D3): 4.4 mmole/10^8 platelets
- Glucose (340 nm (2x), D3): 13.63 mmol/L
- LDH (340 nm (2x), D3): 12.1 LDH IU/10^11 platelets
- Lactate (340 nm (2x), D3): 14.55 mmol/L
- Platelet counts (340 nm (2x), D3): 1317 ×10^3 cells/μL
- Platelet lysis (340 nm (2x), D3): 4.59%
- pCO2 at 37° C. (340 nm (2x), D3): 54.5 mmHg
- pH at 37° C. (340 nm (2x), D3): 6.86
- pO2 at 37° C. (340 nm (2x), D3): 14.8 mmHg
- Adenosine triphosphate (ATP) (340 nm (2x), D5): 4.1 mmole/10^8 platelets
- Glucose (340 nm (2x), D5): 10.69 mmol/L
- LDH (340 nm (2x), D5): 13.0 LDH IU/10^11 platelets
- Lactate (340 nm (2x), D5): 19.06 mmol/L
- Platelet counts (340 nm (2x), D5): 1370 ×10^3 cells/μL
- Platelet lysis (340 nm (2x), D5): 4.92%
- pCO2 at 37° C. (340 nm (2x), D5): 37.5 mmHg
- pH at 37° C. (340 nm (2x), D5): 6.72
- pO2 at 37° C. (340 nm (2x), D5): 15.3 mmHg
- Adenosine triphosphate (ATP) (340 nm (2x), D7): 3.7 mmole/10^8 platelets
- Glucose (340 nm (2x), D7): 8.34 mmol/L
- LDH (340 nm (2x), D7): 13.2 LDH IU/10^11 platelets
- Lactate (340 nm (2x), D7): 22.13 mmol/L
- Platelet counts (340 nm (2x), D7): 1376 ×10^3 cells/μL
- Platelet lysis (340 nm (2x), D7): 5.19%
- pCO2 at 37° C. (340 nm (2x), D7): 36.4 mmHg
- pH at 37° C. (340 nm (2x), D7): 6.56
- pO2 at 37° C. (340 nm (2x), D7): 14.1 mmHg
- Glucose (340 nm (2x), Post-UVA): 16.98 mmol/L
- LDH (340 nm (2x), Post-UVA): 12.1 LDH IU/10^11 platelets
- Lactate (340 nm (2x), Post-UVA): 8.77 mmol/L
- Platelet counts (340 nm (2x), Post-UVA): 1301 ×10^3 cells/μL
- Platelet lysis (340 nm (2x), Post-UVA): 4.50%
- pCO2 at 37° C. (340 nm (2x), Post-UVA): 94.1 mmHg
- pH at 37° C. (340 nm (2x), Post-UVA): 6.89
- pO2 at 37° C. (340 nm (2x), Post-UVA): 14.2 mmHg
- Adenosine triphosphate (ATP) (340 nm (2x), Pre-UVA): 3.9 mmole/10^8 platelets
- LDH (340 nm (2x), Pre-UVA): 10.5 LDH IU/10^11 platelets
- Platelet counts (340 nm (2x), Pre-UVA): 1448 ×10^3 cells/μL
- Platelet lysis (340 nm (2x), Pre-UVA): 4.30%
- pCO2 at 37° C. (340 nm (2x), Pre-UVA): 88.5 mmHg
- pH at 37° C. (340 nm (2x), Pre-UVA): 6.90
- pO2 at 37° C. (340 nm (2x), Pre-UVA): 45.9 mmHg
- Adenosine triphosphate (ATP) (340 nm (3x), D3): 3.8 mmole/10^8 platelets
- Glucose (340 nm (3x), D3): 10.87 mmol/L
- LDH (340 nm (3x), D3): 11.6 LDH IU/10^11 platelets
- Lactate (340 nm (3x), D3): 20.42 mmol/L
- Platelet counts (340 nm (3x), D3): 1372 ×10^3 cells/μL
- Platelet lysis (340 nm (3x), D3): 4.78%
- pCO2 at 37° C. (340 nm (3x), D3): 62.5 mmHg
- pH at 37° C. (340 nm (3x), D3): 6.56
- pO2 at 37° C. (340 nm (3x), D3): 27.7 mmHg
- Adenosine triphosphate (ATP) (340 nm (3x), D5): 0.4 mmole/10^8 platelets
- Glucose (340 nm (3x), D5): 1.33 mmol/L
- LDH (340 nm (3x), D5): 16.0 LDH IU/10^11 platelets
- Lactate (340 nm (3x), D5): 36.09 mmol/L
- Platelet counts (340 nm (3x), D5): 1550 ×10^3 cells/μL
- Platelet lysis (340 nm (3x), D5): 6.62%
- pCO2 at 37° C. (340 nm (3x), D5): 13.9 mmHg
- pH at 37° C. (340 nm (3x), D5): 5.57
- pO2 at 37° C. (340 nm (3x), D5): 159.5 mmHg
- Adenosine triphosphate (ATP) (340 nm (3x), D7): −0.1 mmole/10^8 platelets
- Glucose (340 nm (3x), D7): 0.43 mmol/L
- LDH (340 nm (3x), D7): 33.7 LDH IU/10^11 platelets
- Lactate (340 nm (3x), D7): 36.36 mmol/L
- Platelet counts (340 nm (3x), D7): 1474 ×10^3 cells/μL
- Platelet lysis (340 nm (3x), D7): 16.6%
- pCO2 at 37° C. (340 nm (3x), D7): 4.4 mmHg
- pH at 37° C. (340 nm (3x), D7): 5.49
- pO2 at 37° C. (340 nm (3x), D7): 178.6 mmHg
- Glucose (340 nm (3x), Post-UVA): 16.77 mmol/L
- LDH (340 nm (3x), Post-UVA): 12.1 LDH IU/10^11 platelets
- Lactate (340 nm (3x), Post-UVA): 9.48 mmol/L
- Platelet counts (340 nm (3x), Post-UVA): 1322 ×10^3 cells/μL
- Platelet lysis (340 nm (3x), Post-UVA): 4.77%
- pCO2 at 37° C. (340 nm (3x), Post-UVA): 98.1 mmHg
- pH at 37° C. (340 nm (3x), Post-UVA): 6.87
- pO2 at 37° C. (340 nm (3x), Post-UVA): 19.7 mmHg
- Adenosine triphosphate (ATP) (340 nm (3x), Pre-UVA): 3.6 mmole/10^8 platelets
- LDH (340 nm (3x), Pre-UVA): 10.5 LDH IU/10^11 platelets
- Platelet counts (340 nm (3x), Pre-UVA): 1452 ×10^3 cells/μL
- Platelet lysis (340 nm (3x), Pre-UVA): 4.30%
- pCO2 at 37° C. (340 nm (3x), Pre-UVA): 98.2 mmHg
- pH at 37° C. (340 nm (3x), Pre-UVA): 6.87
- pO2 at 37° C. (340 nm (3x), Pre-UVA): 90.9 mmHg
- Adenosine triphosphate (ATP) (INT-100, D3): 4.3 mmole/10^8 platelets
- Glucose (INT-100, D3): 13.11 mmol/L
- LDH (INT-100, D3): 11.9 LDH IU/10^11 platelets
- Lactate (INT-100, D3): 14.71 mmol/L
- Platelet counts (INT-100, D3): 1395 ×10^3 cells/μL
- Platelet lysis (INT-100, D3): 4.69%
- pCO2 at 37° C. (INT-100, D3): 55.8 mmHg
- pH at 37° C. (INT-100, D3): 6.82
- pO2 at 37° C. (INT-100, D3): 18.9 mmHg
- Adenosine triphosphate (ATP) (INT-100, D5): 4.0 mmole/10^8 platelets
- Glucose (INT-100, D5): 10.26 mmol/L
- LDH (INT-100, D5): 11.6 LDH IU/10^11 platelets
- Lactate (INT-100, D5): 20.18 mmol/L
- Platelet counts (INT-100, D5): 1400 ×10^3 cells/μL
- Platelet lysis (INT-100, D5): 4.50%
- pCO2 at 37° C. (INT-100, D5): 36.4 mmHg
- pH at 37° C. (INT-100, D5): 6.67
- pO2 at 37° C. (INT-100, D5): 20.1 mmHg
- Adenosine triphosphate (ATP) (INT-100, D7): 3.5 mmole/10^8 platelets
- Glucose (INT-100, D7): 8.19 mmol/L
- LDH (INT-100, D7): 12.6 LDH IU/10^11 platelets
- Lactate (INT-100, D7): 23.31 mmol/L
- Platelet counts (INT-100, D7): 1439 ×10^3 cells/μL
- Platelet lysis (INT-100, D7): 5.18%
- pCO2 at 37° C. (INT-100, D7): 35.0 mmHg
- pH at 37° C. (INT-100, D7): 6.54
- pO2 at 37° C. (INT-100, D7): 19.7 mmHg
- Glucose (INT-100, Post-UVA): 17.24 mmol/L
- LDH (INT-100, Post-UVA): 11.5 LDH IU/10^11 platelets
- Lactate (INT-100, Post-UVA): 8.85 mmol/L
- Platelet counts (INT-100, Post-UVA): 1415 ×10^3 cells/μL
- Platelet lysis (INT-100, Post-UVA): 4.74%
- pCO2 at 37° C. (INT-100, Post-UVA): 91.4 mmHg
- pH at 37° C. (INT-100, Post-UVA): 6.89
- pO2 at 37° C. (INT-100, Post-UVA): 36.4 mmHg
- Adenosine triphosphate (ATP) (INT-100, Pre-UVA): 3.9 mmole/10^8 platelets
- LDH (INT-100, Pre-UVA): 10.3 LDH IU/10^11 platelets
- Platelet counts (INT-100, Pre-UVA): 1481 ×10^3 cells/μL
- Platelet lysis (INT-100, Pre-UVA): 4.30%
- pCO2 at 37° C. (INT-100, Pre-UVA): 101.1 mmHg
- pH at 37° C. (INT-100, Pre-UVA): 6.87
- pO2 at 37° C. (INT-100, Pre-UVA): 98.4 mmHg
